Values after ≈ are worked out from the molar mass of the structure shown. Values joined by “and” are separate entries in the source; they are usually repeats but may differ in a detail not shown here. Identical values can stand only once. “Also recorded” adds a separate entry of the source.
Columns and labels:
Assay type in all cases: physicochemical
[1] = Stability study under long-term and accelerated conditions (XRPD and HPLC); settings: for Purity after placing / sample after placing / chemical purity before and after storage: 10 months; for Purity after placing: HPLC; for sample after placing: XRPD; for time the solid form remains unchanged / stable: both long-term (25° C./60% RH/open) and accelerated (40° C./75% RH/open) conditions; for chemical purity before and after storage: long-term and accelerated conditions
Experimental: In this application, X-ray powder diffraction (XRPD) data were collected using a BrukerD8 Advance diffractometer; parameters are as follows: Cu radiation; wavelength: 1.54 Å; Current voltage: 40 KV, 40 mA; Scan range: 3˜40′2θ.
(§1) In this application, the HPLC parameters for chemical stability and solubility are as follows:
[…] Regular testing using XRPD and HPLC was performed.
(§2) […] Regular testing using XRPD and HPLC were performed.
as §2

[2] = Stability under light and oxidation conditions; settings: for time the form remains stable under light: light (25° C./4500 lx/closed); for chemical purity before and after storage: light and oxidation conditions, 14 days; for time the form remains stable under oxidation: oxidation (in an atmosphere of carbamide peroxide)
[3] = Solid form before and after the tableting process (XRPD); settings: XRPD comparison
Description: (§3) Following the formulation in Table 6, API, lactose hydrate, polyvinylpyrrolidone, hydroxypropyl cellulose, microcrystalline cellulose and magnesium stearate were mixed and compressed to obtain a tablet core. Subsequently, the tablet cores are coated with a solution/suspension for film coating, resulting in the preparation of the tablets.

[4] = Stability of the solid form in tablets at 25° C./60% RH (XRPD); settings: XRPD before and after storage
Experimental: as §3
The prepared amorphous tablets, Form 1 tablets and Form 2 tablets were individually placed at 25° C./60% RH for 14 days. XRPD tests were performed before and after storage.

[5] = Dynamic moisture adsorption analysis (DVS), hygroscopicity
Experimental: In this application, dynamic moisture adsorption analysis (DVS) data and isothermal adsorption analysis data were obtained using a TA Instruments Q5000 TGA; parameters are as follows: temperature: 25° C.; relative humidity range: 0% RH-80% RH; dm/dt=0.001%/min; equilibration time: gas: N2; sample pan: platinum pan.

[6] = Solubility study in pH 1.2 buffer solution and pH 1.2 SGF (HPLC); settings: for Solubility, pH 1.2 SGF: pH 1.2 SGF (with pepsin)
Experimental: as §1
The amorphous form of tolebrutinib, Form 1 and Form 2 samples of the present application were studied using pH 1.2 buffer solution (preparation: 375.90 mg potassium chloride solid and 1709.47 mg concentrated hydrochloric acid (37%) were added to a 100 mL volumetric flask, 80 mL of pure water was added, adjusted the pH to 1.2 with hydrochloric acid or potassium hydroxide, q.s. to volume) and pH 1.2 SGF (preparation: In 765 μL of concentrated hydrochloric acid (37%) added about 80 mL of water, 1 g of pepsin, 200 mg chlorinated sodium, shook, diluted with water to 100 mL) to form a supersaturated solution, and the dissolved content of the sample in the saturated solution was determined by high performance liquid chromatography (HPLC) at a fixed time point.

[7] = Compressibility study (tablet compression, hardness, tensile strength); settings: for tensile strength: calculated, T=2H/πDL*9.8; for diameters / thicknesses: circular tablets, 7.5 mm punch; for diameters / thicknesses / hardness: mean main pressure 1.8 KN; for hardness: radial breaking force, tablet hardness tester
Experimental: The tablet compression was conducted using a Tianxiang rotary tablet press. A circular punch with a diameter of 7.5 mm (07.5 mm) was selected, a filling depth of 17.9 mm and a mean main pressure of 1.8 KN was used to form circular tablets. The tablets' radial breaking force (hardness, H) was measured using a tablet hardness tester. The tablets' diameter (D) and thickness (L) were measured using a vernier caliper. The tensile strength (T) of the powder was calculated using the formula T=2H/πDL*9.8.

[8] = Polarized light microscope (PLM) particle size; settings: PLM image
Experimental: In this application, the polarized light microscope (PLM) images were collected using a XPV˜990E polarized light microscope; a small amount of powder sample was placed on a glass slide, a small amount of mineral oil was added dropwise to disperse the sample, a cover glass was placed on the slide, and the sample was placed on the slide. Observing and taking pictures on the stage.

[9] = Competitive slurry experiments
[10] = listed as amorphous form of tolebrutinib
[11] = listed as amorphous tolebrutinib
[12] = pH 1.2 buffer and pH 1.2 SGF (medium simulating the physiological pH of the human stomach)
[13] = pH 1.2 buffer solution, 2 hours

Row | SMILES | Purity after placing ([1]; 40° C./75% RH/open) | sample after placing ([1]; 40° C./75% RH/open) | solid form before and after the tableting process [3] | Solubility, pH 1.2 SGF ([6]; 2 hours) | tensile strength [7] | diameters [7] | thicknesses [7] | hardness [7] | Purity after placing ([1]; 25° C./60% RH/open) | sample after placing ([1]; 25° C./60% RH/open) | time the solid form remains unchanged / stable [1] | time the form remains stable under light [2] | chemical purity before and after storage [2] | time the form remains stable under oxidation [2] | particle size [8] | solubility, approximate level [6, 12] | Solubility, pH 1.2 buffer solution [6, 13] | also measured
1 | C=CC(=O)N1CCC[C@@H](n2c(=O)n(-c3ccc(Oc4ccccc4)cc3)c3c(N)nccc32)C1 [Amorphous, tolebrutinib] | 98.00% | Amorphous | remained unchanged | 36.76 mg/mL | 1.4 MPa | 7.49 mm | 4.15 mm | 7.18 kg | – | – | – | – | – | – | – | – | – | Purity after placing ([1]; 25° C./65% RH/open): 98.87%; sample after placing ([1]; 25° C./65% RH/open): Amorphous; Purity after placing ([1]; 40° C./75% RH/open, listed as amorphous form of tolebrutinib): 98.0%; time the solid form remains unchanged / stable [1, 10]: 10 months; time the solid form remains unchanged / stable [1, 11]: 10 months; chemical purity before and after storage [1, 10]: essentially unchanged; chemical purity before and after storage [1, 11]: essentially unchanged; time the form remains stable under light [2, 10]: 14 days; time the form remains stable under light [2, 11]: at least 14 days; chemical purity before and after storage [2, 10]: no essential change; chemical purity before and after storage [2, 11]: essentially unchanged; time the form remains stable under oxidation [2, 10]: 14 days; time the form remains stable under oxidation [2, 11]: at least 14 days; time the solid form remains unchanged / stable in the formulation (tablets) [4, 10]: 14 days; DVS weight gain ([5]; between 20% RH and 80% RH, 25° C., listed as amorphous form of tolebrutinib): about 1.9%; DVS weight gain ([5]; between 20% RH and 80% RH, 25° C., listed as sample 1-1): about 1.9%; solubility compared with the crystal forms [6]: surpassing that of Tolebrutinib Form 1 and Form 2; solubility ([6]; pH 1.2 buffer solution and pH 1.2 SGF, pH 1.2, simulated gastric fluid, thermodynamic from solid, pH 1.2 buffer and pH 1.2 SGF (medium simulating the physiological pH of the human stomach), read-out: solubility, approximate level): ~20 mg/mL (≈ 43.9 mM); solubility at 2 hours ([6]; pH 1.2 buffer solution, pH 1.2, simulated gastric fluid, thermodynamic from solid, 2 hours): 29.1 mg/mL (≈ 63.8 mM)
2 | C=CC(=O)N1CCC[C@@H](n2c(=O)n(-c3ccc(Oc4ccccc4)cc3)c3c(N)nccc32)C1 [Form 1, tolebrutinib] | 99.5% and 99.54% | Form 1 | remained unchanged | 18.28 mg/mL | 1.3 MPa | 7.51 mm | 4.18 mm | 6.40 kg | 99.77% | Form 1 | 10 months | at least 14 days | basically unchanged | at least 14 days | ≤ 10 μm | approximately 20 mg/mL | 21.19 mg/mL | time the solid form remains unchanged / stable ([1]; listed as Tolebrutinib Form 1): at least 10 months; chemical purity before and after storage ([1]; listed as Tolebrutinib Form 1): basically unchanged; also recorded: essentially unchanged; time the solid form remains unchanged / stable in the formulation (tablets) ([4]; listed as Tolebrutinib Form 1): at least 14 days; DVS weight gain ([5]; between 20% RH and 80% RH, 25° C., listed as sample 2-1): about 0.46%; solubility, approximate level ([6]; pH 1.2 buffer and pH 1.2 SGF (medium simulating the physiological pH of the human stomach), listed as Tolebrutinib Form 1): around 20 mg/mL
3 | C=CC(=O)N1CCC[C@@H](n2c(=O)n(-c3ccc(Oc4ccccc4)cc3)c3c(N)nccc32)C1 [Form 2, tolebrutinib] | 98.24% | Form 2 | remained unchanged | 32.45 mg/mL | 1.7 MPa | 7.51 mm | 4.18 mm | 8.31 kg | 98.87% | Form 2 | 10 months | at least 14 days | basically unchanged | at least 14 days | ≤ 10 μm | approximately 20 mg/mL | 21.44 mg/mL | thermodynamic stability [9]: thermodynamically stable form at temperatures of 30 °C and above; time the solid form remains unchanged / stable ([1]; listed as tolebrutinib Form 2): at least 10 months; chemical purity before and after storage ([1]; listed as Tolebrutinib Form 2): essentially unchanged; chemical purity before and after storage ([1]; listed as tolebrutinib Form 2): basically unchanged; time the solid form remains unchanged / stable in the formulation (tablets) ([4]; listed as Tolebrutinib Form 2): at least 14 days; DVS weight gain ([5]; between 0% RH and 80% RH, listed as Tolebrutinib Form 2): 0.3%; DVS weight gain ([5]; between 0% RH and 80% RH, listed as sample 3-1): about 0.34%

Source: US12103925B2, “Crystal and amorphous form of tolebrutinib, preparation method therefor, and use thereof” (HANGZHOU SOLIPHARMA CO., LTD., priority 2021, dated 2024)
